US5744121A (priority 1996, dated 1998)
Read-outs that look alike come from different tables or passages of the source. Each block holds one compound with its values, some of them ahead of it.

What was measured:
5-HT1A receptor [1] = conditions: cited from earlier work
other receptors = conditions: cited from earlier work
5-HT1A receptor [2] = assay: Blocking studies: regional brain uptake ratios in rats; type: in vivo; conditions: 30 min post iv injection of tracer
Protocol: In order to further characterize the in vivo brain uptake of 1a in rats, blocking studies were carried out to determine changes of the ratios of regional brain uptake. […] Ratios for each region were calculated based on the % dose/gram of each region divided by the same in CB. […] (HP: hippocampus; CB: cerebellum; HY: hypothalamus; CX: cortex; ST: striatum).

[3] = Biodistribution in rats after iv injection; type: in vivo, Male Sprague-Dawley rats; conditions: average of 3 rats ± SD
Protocol: Male Sprague-Dawley rats (225-300 g), allowed free access to food and water, were used for an in vivo biodistribution study. While the rats were under ether anesthesia, 0.2 mL of a saline solution containing [^123 I]1a and 1b (8-10 μCi) was injected directly into the femoral vein, and rats were sacrificed at various time points postinjection by cardiac excision under ether anesthesia. The organs of interest were removed and weighed and the radioactivity was counted with a Packard […] automatic counter (Model 5000). The percentage dose per organ was calculated by a comparison of the tissue counts to suitably diluted aliquots of the injected material.

[4] = biological target: T1, 5-HT1A receptor (rat hippocampal homogenates) (Rattus norvegicus, UniProt P19327); assay: Inhibition of [^125 I]-8-OH-PIPAT binding to rat hippocampal homogenates; conditions: ligand [^125 I]-8-OH-PIPAT
T1 construct: in rat hippocampal membrane preparations; from tissue; host or cells: rat hippocampus (membrane preparations / tissue homogenates)
T1 sequence (P19327 1-422): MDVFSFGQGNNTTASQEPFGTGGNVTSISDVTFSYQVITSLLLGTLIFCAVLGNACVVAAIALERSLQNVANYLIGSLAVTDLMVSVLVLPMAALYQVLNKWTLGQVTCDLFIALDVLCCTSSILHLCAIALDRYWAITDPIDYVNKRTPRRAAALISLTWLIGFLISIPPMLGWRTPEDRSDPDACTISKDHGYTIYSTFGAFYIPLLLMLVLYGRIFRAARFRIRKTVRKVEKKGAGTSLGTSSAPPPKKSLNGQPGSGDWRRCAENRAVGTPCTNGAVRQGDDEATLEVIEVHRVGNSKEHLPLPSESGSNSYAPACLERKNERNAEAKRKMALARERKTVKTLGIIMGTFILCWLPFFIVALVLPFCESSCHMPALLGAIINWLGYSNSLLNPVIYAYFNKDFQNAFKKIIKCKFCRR
Text: The 5-HT1A binding affinity of p-, m-, o- MPPI, p-fluoro- and p-nitro-MPP derivatives (1a-f) in rat hippocampal membrane preparations with [^123 ]

[5] = system: serotonin (5-HT1A) receptor; assay: Selectivity for serotonin 5-HT1A receptor; type: binding
[6] = biological target: T1, 5-HT1A receptor (rat hippocampal homogenates); assay: Inhibition of [^125 I]-p-MPP binding to rat hippocampal homogenates; conditions: ligand [^125 I]-p-MPP, rat hippocampal homogenates; read-out: Ki
5-HT1A receptor [7] = assay: Regional brain distribution in rats after iv injection; type: in vivo, Male Sprague-Dawley rats; conditions: ^123 I labeled, iv
Protocol: (§1) While the rats were under ether anesthesia, 0.2 mL of a saline solution containing [^123 I]1a and 1b (8-10 μCi) was injected directly into the femoral vein, and rats were sacrificed at various time points postinjection by cardiac excision under ether anesthesia. The organs of interest were removed and weighed and the radioactivity was counted with a Packard garnma automatic counter (Model 5000). The percentage dose per organ was calculated by a comparison of the tissue counts to suitably diluted aliquots of the injected material. Total activities of blood and muscle were calculated under the assumption that they were 7% and 40% of the total body weight, respectively.
(§2) By dissecting, weighing and counting samples from different brain regions (cortex, striatum, hippocampus, hypothalamus and cerebellum), the percentage dose/gram of the sample was calculated by comparing the sample counts with the count of the diluted initial dose.

[8] = as above; type: in vivo, Male Sprague-Dawley rats; conditions: rat; for tissue uptake at 0.5 h: 30 min; for tissue uptake at 2 h: 120 min
Protocol: as §1, §2

α1 receptor = conditions: relative to 5-HT1A; cited from earlier work
[9] = Stability of the radiolabelled product on storage; type: physicochemical; conditions: -20° C., at least four weeks, HPLC; 40320 min
[10] = Partition coefficient (octanol/phosphate); type: physicochemical; conditions: octanol/0.1M phosphate, pH 7.0; read-out: P.C (partition coefficient) (converted)
Text: P.C = 1800 (octanol/0.1M phosphate, pH 7.0)

[11] = cerebellum, iv, rats (Table III), read-out: Regional distribution, cerebellum
[12] = cortex, iv, rats (Table III), read-out: Regional distribution, cortex
[13] = hippocampus, iv, rats (Table III), read-out: Regional distribution, hippocampus
[14] = hypothalamus, iv, rats (Table III), read-out: Regional distribution, hypothalamus
[15] = striatum, iv, rats (Table III), read-out: Regional distribution, striatum

SMILES: COc1ccccc1N1CCN(CCCCNC(=O)C23CC4CC(CC(C4)C2)C3)CC1 [4-[4-(1-adamantanecarboxamido)-butyl] 1-(2-methoxyphenyl)piperazine]
Kd (5-HT1A receptor [1]; 5-HT1A receptor): 0.4 nM
binding affinity to other receptors (other receptors): devoid of binding affinity to other receptors

SMILES: COc1ccccc1N1CCN(CCN(C(=O)c2ccc(I)cc2)c2ccccn2)CC1 [Compound 1a, 4-(2'-methoxy)phenyl-1-[2'-(N-2"-pyridinyl)-p-iodobenzamido]ethyl piperazine]
HP/CB ratio (5-HT1A receptor [2]; (±)8-OH-DPAT pretreated (2 mg/kg, iv, 5 min prior)): 1.21
HP/CB ratio (5-HT1A receptor [2]; WAY 100635 pretreated (1 mg/kg, iv, 20 min prior)): 1.07
HP/CB ratio (5-HT1A receptor [2]; control (no pretreatment)): 3.69
Brain uptake ([3]; 2 min): 1.22 % dose/organ
Ki [4]: 2.6 ± 0.7 nM
selectivity/affinity for serotonin 5-HT1A receptor [5]: unique high affinity and selectivity toward serotonin 5-HT1A sites
Ki [6]: 0.96 ± 0.1 nM
5-HT1A related specific uptake (regional distribution pattern in rat brain) (5-HT1A receptor [7]): displayed the 5-HT1A related specific uptake
tissue uptake at 1 h ([8]; hippocampus, 60 minutes after iv injection, ^123 I labeled, read-out: Uptake in hippocampal tissue): 0.13 %ID/g

SMILES: COc1ccccc1N1CCN(CCCCN2C(=O)c3ccccc3C2=O)CC1 [NAN-190, 1-(2-methoxyphenyl)-4-[4-(2-phthalimido)butyl]piperazine]
Ki (5-HT1A receptor [1]; 5-HT1A affinity): 0.6 nM
potency for the α1 receptor (α1 receptor): equal potency for the α1 receptor

purity on storage [9]: > 95%
Blood uptake ([3]; 2 min): 4.49 ± 0.55 % dose/organ
Brain uptake ([3]; 2 min): 1.22 ± 0.22 % dose/organ
Heart uptake ([3]; 2 min): 0.91 ± 0.09 % dose/organ
Kidney uptake ([3]; 2 min): 5.20 ± 0.44 % dose/organ
Liver uptake ([3]; 2 min): 14.2 ± 3.1 % dose/organ
Lung uptake ([3]; 2 min): 2.39 ± 0.10 % dose/organ
Muscle uptake ([3]; 2 min): 11.29 ± 4.15 % dose/organ
Skin uptake ([3]; 2 min): 8.34 ± 1.22 % dose/organ
Spleen uptake ([3]; 2 min): 0.37 ± 0.13 % dose/organ
Thyroid uptake ([3]; 2 min): 0.09 ± 0.02 % dose/organ
Blood uptake ([3]; 30 min): 4.04 ± 1.24 % dose/organ
Brain uptake ([3]; 30 min): 0.22 ± 0.01 % dose/organ
Heart uptake ([3]; 30 min): 0.18 ± 0.04 % dose/organ
Kidney uptake ([3]; 30 min): 1.74 ± 0.49 % dose/organ
Liver uptake ([3]; 30 min): 8.71 ± 0.20 % dose/organ
Lung uptake ([3]; 30 min): 0.48 ± 0.05 % dose/organ
Muscle uptake ([3]; 30 min): 7.58 ± 2.48 % dose/organ
Skin uptake ([3]; 30 min): 8.24 ± 1.60 % dose/organ
Spleen uptake ([3]; 30 min): 0.14 ± 0.02 % dose/organ
Thyroid uptake ([3]; 30 min): 0.03 ± 0.02 % dose/organ
Blood uptake ([3]; 60 min): 2.73 ± 0.09 % dose/organ
Brain uptake ([3]; 60 min): 0.12 ± 0.005 % dose/organ
Heart uptake ([3]; 60 min): 0.13 ± 0.02 % dose/organ
Kidney uptake ([3]; 60 min): 1.06 ± 0.23 % dose/organ
Liver uptake ([3]; 60 min): 7.53 ± 0.99 % dose/organ
Lung uptake ([3]; 60 min): 0.31 ± 0.04 % dose/organ
Muscle uptake ([3]; 60 min): 4.34 ± 0.91 % dose/organ
Skin uptake ([3]; 60 min): 4.51 ± 1.00 % dose/organ
Spleen uptake ([3]; 60 min): 0.11 ± 0.04 % dose/organ
Thyroid uptake ([3]; 60 min): 0.02 ± 0.007 % dose/organ
Blood uptake ([3]; 120 min): 2.05 ± 0.30 % dose/organ
Brain uptake ([3]; 120 min): 0.05 ± 0.002 % dose/organ
Heart uptake ([3]; 120 min): 0.07 ± 0.003 % dose/organ
Kidney uptake ([3]; 120 min): 0.62 ± 0.11 % dose/organ
Liver uptake ([3]; 120 min): 5.16 ± 1.01 % dose/organ
Lung uptake ([3]; 120 min): 0.18 ± 0.002 % dose/organ
Muscle uptake ([3]; 120 min): 2.14 ± 0.15 % dose/organ
Skin uptake ([3]; 120 min): 5.82 ± 4.37 % dose/organ
Spleen uptake ([3]; 120 min): 0.07 ± 0.009 % dose/organ
Thyroid uptake ([3]; 120 min): 0.02 ± 0.01 % dose/organ
logD [10]: 3.26
tissue uptake at 2 min [8, 11]: 0.64 ± 0.08 %ID/g
tissue uptake at 0.5 h [8, 11]: 0.07 ± 0.006 %ID/g
tissue uptake at 1 h ([8]; cerebellum, 60 min, iv, rats (Table III), read-out: Regional distribution, cerebellum): 0.04 ± 0.001 %ID/g
tissue uptake at 2 h [8, 11]: 0.024 ± 0.0002 %ID/g
tissue uptake at 2 min [8, 12]: 0.91 ± 0.06 %ID/g
tissue uptake at 0.5 h [8, 12]: 0.11 ± 0.01 %ID/g
tissue uptake at 1 h ([8]; cortex, 60 min, iv, rats (Table III), read-out: Regional distribution, cortex): 0.061 ± 0.002 %ID/g
tissue uptake at 2 h [8, 12]: 0.026 ± 0.002 %ID/g
tissue uptake at 2 min [8, 13]: 0.87 ± 0.18 %ID/g
tissue uptake at 0.5 h [8, 13]: 0.23 ± 0.007 %ID/g
tissue uptake at 1 h ([8]; hippocampus, 60 min, iv, rats (Table III), read-out: Regional distribution, hippocampus): 0.127 ± 0.009 %ID/g
tissue uptake at 2 h [8, 13]: 0.04 ± 0.003 %ID/g
tissue uptake at 2 min [8, 14]: 0.67 ± 0.1 %ID/g
tissue uptake at 0.5 h [8, 14]: 0.14 ± 0.04 %ID/g
tissue uptake at 1 h ([8]; hypothalamus, 60 min, iv, rats (Table III), read-out: Regional distribution, hypothalamus): 0.051 ± 0.004 %ID/g
tissue uptake at 2 h [8, 14]: 0.03 ± 0.0002 %ID/g
tissue uptake at 2 min [8, 15]: 0.76 ± 0.12 %ID/g
tissue uptake at 0.5 h [8, 15]: 0.09 ± 0.0001 %ID/g
tissue uptake at 1 h ([8]; striatum, 60 min, iv, rats (Table III), read-out: Regional distribution, striatum): 0.046 ± 0.004 %ID/g
tissue uptake at 2 h [8, 15]: 0.021 ± 0.0007 %ID/g
SMILES: COc1ccccc1N1CCN(CCN(C(=O)c2ccc([123I])cc2)c2ccccn2)CC1 [[^123 I] 1a]
